US6075057A, “Inhibition of carbohydrates metabolism by quinone compounds” (priority 1997, dated 2000)
Read-outs that look alike come from different tables or passages of the source.

Experiments:
Ames-microsomal assay = conditions: cited from earlier work
[1] = tested on: benzo[a]pyrene monooxygenase; conditions: cited from earlier work
[2] = documented; cited from earlier work
[3] = tested on: β-N-acetylglucosaminidase (EC 3.2.1.30); assay: Initial screening assay for enzyme inhibition, β-N-acetylglucosaminidase; type: biochemical, bovine kidney; conditions: 20 μM inhibitor, 2% MeOH
Description: (§1) Optically pure enantiomers of avarol were synthetically prepared. A survey of potential inhibitory activity by avarol against twelve glycosidases was performed according to general procedures^15 (see experimental section). The enzymes tested and their biological sources are listed in Table 1 along with any pertinent references found for a given enzyme. In order to determine a working range for enzyme and substrate concentrations in which the rate of product formation was linear and steady-state kinetics were applicable, initial rate studies with varying substrate concentrations were performed in the absence of inhibitor. The Michaelis constants (Km 's) and Vmax values for these enzymes were determined from these plots using standard graphical analysis procedures as described in ref. 17 and are summarized in Table 2.
(§2) Enzymatic Assays. Piperazine-N,N'-bix-(2-ethanesulfonic acid)(PIPES) buffer, enzymes, and substrates were purchased from Sigma and used as received. Buffer solutions and enzymes (desiccated) were stored at 4° C. p-Nitrophenyl glycoside substrates were stored desiccated at -20° C. Enzyme inhibition assays and initial rate studies were carried out with the appropriate p-nitrophenyl glycoside substrates following the general procedure of Kajimoto et al., J. Am. Chem. Soc. 113:6187 (1991) with the exception that amyloglucosidase (EC 3.2,1.3, Asp. niger) was assayed following the method of Saul et al., Arch. Biochem. Biophys. 221:593 (1983). Assays were performed in a Perkin-Elmer Lambda Array 3840 Spectrophotometer using the built-in drive method (resolution=0.25, average=8) in a quartz cuvette (1 cm pathlength). Background absorption spectra were acquired using millipore filtered water as medium. Steady-state kinetics were maintained by adjusting the amount of enzyme used in each assay so that less than 10% of the substrate was converted to product for the duration of the reaction. Reactions were monitored at 400 nm (the absorbance of the p-nitrophenol product, ε=3204.5 M^-1 cm^-1) for a given amount of time and the initial rates were calculated and expressed as μmols p-nitrophenol formed per unit enzyme per second. Absportion readings for control reactions were corrected for the small baseline absorbance at time zero. Small discrepancies between time zero absorbance readings in a given inhibition assay and a time zero reading in a control assay were used to correct the overall absorbance change calculated in the inhibition assay. […]
(§3) Typical assay: A 1.5-mL quartz cuvette was charged with 940 μL of PIPES-NaOAc buffer solution (pH 6.56), 20 μL of inhibitor solution, and 20 μL of enzyme solution. […] The reaction was monitored at 400 nm for 1 min and the absorbance change was used to calculate the initial hydrolysis rate. […]

[4] = target: T1, β-galactosidase (EC 3.2.1.23, grade XI) (Aspergillus oryzae, UniProt Q2UCU3); assay: Initial screening assay for enzyme inhibition, β-galactosidase (Asp. oryzae); type: biochemical; conditions: 20 μM inhibitor, 2% MeOH, read-out: % Enzyme activity relative to control
T1 construct: purchased Sigma; host or cells: Aspergillus oryzae
T1 sequence (Q2UCU3 19-1005): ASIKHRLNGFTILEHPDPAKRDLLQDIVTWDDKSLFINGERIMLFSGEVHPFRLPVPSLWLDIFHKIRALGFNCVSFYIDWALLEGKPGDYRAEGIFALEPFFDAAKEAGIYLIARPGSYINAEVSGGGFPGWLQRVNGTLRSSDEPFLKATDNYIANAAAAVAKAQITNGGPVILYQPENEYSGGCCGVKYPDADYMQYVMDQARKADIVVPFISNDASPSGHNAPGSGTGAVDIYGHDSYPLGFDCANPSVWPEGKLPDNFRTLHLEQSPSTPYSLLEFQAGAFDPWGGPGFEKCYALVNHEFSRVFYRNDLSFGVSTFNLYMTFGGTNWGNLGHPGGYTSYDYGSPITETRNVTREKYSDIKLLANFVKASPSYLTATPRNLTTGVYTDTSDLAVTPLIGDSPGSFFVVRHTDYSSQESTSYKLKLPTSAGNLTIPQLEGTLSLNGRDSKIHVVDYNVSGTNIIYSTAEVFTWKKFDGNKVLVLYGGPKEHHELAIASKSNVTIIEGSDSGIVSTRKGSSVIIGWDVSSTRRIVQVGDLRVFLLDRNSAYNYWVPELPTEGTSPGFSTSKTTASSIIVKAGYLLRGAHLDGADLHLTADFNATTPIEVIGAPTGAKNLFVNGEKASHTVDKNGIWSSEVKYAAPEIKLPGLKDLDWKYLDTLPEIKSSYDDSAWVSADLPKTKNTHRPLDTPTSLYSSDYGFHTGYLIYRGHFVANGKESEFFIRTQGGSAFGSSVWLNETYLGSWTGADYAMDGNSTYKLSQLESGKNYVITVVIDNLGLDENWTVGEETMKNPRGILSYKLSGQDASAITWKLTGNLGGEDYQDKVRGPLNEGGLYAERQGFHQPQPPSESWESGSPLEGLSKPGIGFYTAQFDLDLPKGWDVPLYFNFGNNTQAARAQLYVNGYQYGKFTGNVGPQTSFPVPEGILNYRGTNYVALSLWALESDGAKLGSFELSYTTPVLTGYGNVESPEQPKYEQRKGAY
Description: as §1, §2, §3

[5] = target: T2, β-galactosidase (EC 3.2.1.23) (Aspergillus niger, UniProt P29853); assay: Initial screening assay for enzyme inhibition, β-galactosidase (Asp. niger); type: biochemical; conditions: 20 μM inhibitor, 2% MeOH, read-out: % Enzyme activity relative to control
T2 construct: purchased Sigma; host or cells: Aspergillus niger
T2 sequence (P29853 20-1006): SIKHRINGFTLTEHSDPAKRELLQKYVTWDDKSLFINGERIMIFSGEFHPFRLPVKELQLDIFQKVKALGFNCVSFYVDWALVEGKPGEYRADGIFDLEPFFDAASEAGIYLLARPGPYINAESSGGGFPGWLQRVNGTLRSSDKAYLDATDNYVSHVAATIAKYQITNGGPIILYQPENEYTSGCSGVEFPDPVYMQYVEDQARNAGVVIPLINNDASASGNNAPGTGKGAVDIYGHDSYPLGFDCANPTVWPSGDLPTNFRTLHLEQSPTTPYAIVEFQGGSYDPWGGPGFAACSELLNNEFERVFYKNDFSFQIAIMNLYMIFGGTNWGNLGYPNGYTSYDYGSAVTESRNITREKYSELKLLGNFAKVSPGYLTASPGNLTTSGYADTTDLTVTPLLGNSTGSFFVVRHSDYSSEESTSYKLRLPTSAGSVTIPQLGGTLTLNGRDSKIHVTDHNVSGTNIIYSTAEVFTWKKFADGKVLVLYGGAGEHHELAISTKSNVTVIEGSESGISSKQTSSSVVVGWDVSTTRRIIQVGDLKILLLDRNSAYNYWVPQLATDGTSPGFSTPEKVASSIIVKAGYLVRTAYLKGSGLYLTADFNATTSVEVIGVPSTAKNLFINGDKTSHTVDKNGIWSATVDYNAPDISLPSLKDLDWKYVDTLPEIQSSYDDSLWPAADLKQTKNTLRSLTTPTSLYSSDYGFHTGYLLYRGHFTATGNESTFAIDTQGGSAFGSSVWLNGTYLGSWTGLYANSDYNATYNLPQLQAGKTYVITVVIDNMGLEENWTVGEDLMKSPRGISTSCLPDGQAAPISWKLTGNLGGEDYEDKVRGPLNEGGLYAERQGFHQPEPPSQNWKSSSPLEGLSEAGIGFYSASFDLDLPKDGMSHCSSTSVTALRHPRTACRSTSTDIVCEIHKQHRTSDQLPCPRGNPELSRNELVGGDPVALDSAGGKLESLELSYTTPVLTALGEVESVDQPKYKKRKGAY
Description: as §1, §2, §3

[6] = target: T3, α-L-fucosidase (EC 3.2.1.51) (Bos taurus, UniProt Q2KIM0); assay: Initial screening assay for enzyme inhibition, α-L-fucosidase; type: biochemical, bovine kidney; conditions: read-out: % Enzyme activity relative to control
T3 construct: purchased Sigma; host or cells: bovine kidney
T3 sequence (Q2KIM0 23-468): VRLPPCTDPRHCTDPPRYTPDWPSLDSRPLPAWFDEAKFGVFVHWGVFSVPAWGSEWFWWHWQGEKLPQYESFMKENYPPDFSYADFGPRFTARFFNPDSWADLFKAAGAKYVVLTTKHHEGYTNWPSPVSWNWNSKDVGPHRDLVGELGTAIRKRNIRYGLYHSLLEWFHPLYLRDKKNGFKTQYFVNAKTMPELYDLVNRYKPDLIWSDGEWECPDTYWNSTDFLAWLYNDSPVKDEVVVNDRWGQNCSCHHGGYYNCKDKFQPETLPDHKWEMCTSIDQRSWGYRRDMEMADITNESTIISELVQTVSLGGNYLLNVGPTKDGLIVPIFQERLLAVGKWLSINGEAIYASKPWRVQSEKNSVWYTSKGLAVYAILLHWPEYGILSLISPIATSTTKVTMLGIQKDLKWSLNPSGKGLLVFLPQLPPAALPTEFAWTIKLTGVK
Description: as §1, §2, §3

[7] = tested on: α-galactosidase (EC 3.2.1.22); assay: Initial screening assay for enzyme inhibition, α-galactosidase (E. coli); type: biochemical, Escherichia coli; conditions: 20 μM inhibitor, 2% MeOH
Description: as §1, §2, §3

[8] = target: T4, α-galactosidase (EC 3.2.1.22) (Coffea arabica, UniProt Q42656); assay: Initial screening assay for enzyme inhibition, α-galactosidase (green coffee beans); type: biochemical; conditions: read-out: % Enzyme activity relative to control
T4 construct: purchased Sigma; host or cells: green coffee beans
T4 sequence (Q42656 16-378): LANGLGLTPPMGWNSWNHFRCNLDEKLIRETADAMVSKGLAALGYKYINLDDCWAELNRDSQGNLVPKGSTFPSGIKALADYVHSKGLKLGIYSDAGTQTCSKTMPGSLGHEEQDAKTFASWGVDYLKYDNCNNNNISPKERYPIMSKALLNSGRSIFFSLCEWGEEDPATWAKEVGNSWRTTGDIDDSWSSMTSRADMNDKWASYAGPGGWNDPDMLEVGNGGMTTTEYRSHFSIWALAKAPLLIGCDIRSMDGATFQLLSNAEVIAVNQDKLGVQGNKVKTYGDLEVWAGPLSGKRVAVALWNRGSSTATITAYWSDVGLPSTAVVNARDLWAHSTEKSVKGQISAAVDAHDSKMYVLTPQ
Description: as §1, §2, §3

[9] = tested on: amyloglucosidase (EC 3.2.1.3); assay: Initial screening assay for enzyme inhibition, amyloglucosidase; type: biochemical, Aspergillus niger; conditions: for % Enzyme activity relative to control: amyloglucosidase, 20 μM inhibitor, 2% MeOH
Description: as §1
(§4) Enzymatic Assays. Piperazine-N,N'-bix-(2-ethanesulfonic acid)(PIPES) buffer, enzymes, and substrates were purchased from Sigma and used as received. Buffer solutions and enzymes (desiccated) were stored at 4° C. p-Nitrophenyl glycoside substrates were stored desiccated at -20° C. Enzyme inhibition assays and initial rate studies were carried out with the appropriate p-nitrophenyl glycoside substrates following the general procedure of Kajimoto et al., J. Am. Chem. Soc. 113:6187 (1991) with the exception that amyloglucosidase (EC 3.2,1.3, Asp. niger) was assayed following the method of Saul et al., Arch. Biochem. Biophys. 221:593 (1983). Assays were performed in a Perkin-Elmer Lambda Array 3840 Spectrophotometer using the built-in drive method (resolution=0.25, average=8) in a quartz cuvette (1 cm pathlength). Background absorption spectra were acquired using millipore filtered water as medium. Steady-state kinetics were maintained by adjusting the amount of enzyme used in each assay so that less than 10% of the substrate was converted to product for the duration of the reaction. Reactions were monitored at 400 nm (the absorbance of the p-nitrophenol product, ε=3204.5 M^-1 cm^-1) for a given amount of time and the initial rates were calculated and expressed as μmols p-nitrophenol formed per unit enzyme per second. Absportion readings for control reactions were corrected for the small baseline absorbance at time zero. Small discrepancies between time zero absorbance readings in a given inhibition assay and a time zero reading in a control assay were used to correct the overall absorbance change calculated in the inhibition assay. Inhibitors were dissolved in uv-grade absolute methanol.
(§5) Typical assay: A 1.5-mL quartz cuvette was charged with 940 μL of PIPES-NaOAc buffer solution (pH 6.56), 20 μL of inhibitor solution, and 20 μL of enzyme solution. The result was mixed well and then equilibrated at 37° C. for two minutes. 20 μL of the appropriate p-nitrophenyl glycoside solution was then added to initiate the reaction with rapid mixing. The reaction was monitored at 400 nm for 1 min and the absorbance change was used to calculate the initial hydrolysis rate. Lineweaver-Burk plots were constructed by repeating this procedure with varying substrate and inhibitor concentrations.

[10] = tested on: β-mannosidase (EC 3.2.1.25); assay: Initial screening assay for enzyme inhibition, β-mannosidase; type: biochemical, snail; conditions: 20 μM inhibitor, 2% MeOH
Description: as §1, §2, §3

[11] = target: T5, β-xylosidase (EC 3.2.1.37) (Aspergillus niger, UniProt O00089); assay: Initial screening assay for enzyme inhibition, β-xylosidase; type: biochemical; conditions: 20 μM inhibitor, 2% MeOH, read-out: % Enzyme activity relative to control
T5 construct: purchased Sigma; host or cells: Aspergillus niger
T5 sequence (O00089 27-804): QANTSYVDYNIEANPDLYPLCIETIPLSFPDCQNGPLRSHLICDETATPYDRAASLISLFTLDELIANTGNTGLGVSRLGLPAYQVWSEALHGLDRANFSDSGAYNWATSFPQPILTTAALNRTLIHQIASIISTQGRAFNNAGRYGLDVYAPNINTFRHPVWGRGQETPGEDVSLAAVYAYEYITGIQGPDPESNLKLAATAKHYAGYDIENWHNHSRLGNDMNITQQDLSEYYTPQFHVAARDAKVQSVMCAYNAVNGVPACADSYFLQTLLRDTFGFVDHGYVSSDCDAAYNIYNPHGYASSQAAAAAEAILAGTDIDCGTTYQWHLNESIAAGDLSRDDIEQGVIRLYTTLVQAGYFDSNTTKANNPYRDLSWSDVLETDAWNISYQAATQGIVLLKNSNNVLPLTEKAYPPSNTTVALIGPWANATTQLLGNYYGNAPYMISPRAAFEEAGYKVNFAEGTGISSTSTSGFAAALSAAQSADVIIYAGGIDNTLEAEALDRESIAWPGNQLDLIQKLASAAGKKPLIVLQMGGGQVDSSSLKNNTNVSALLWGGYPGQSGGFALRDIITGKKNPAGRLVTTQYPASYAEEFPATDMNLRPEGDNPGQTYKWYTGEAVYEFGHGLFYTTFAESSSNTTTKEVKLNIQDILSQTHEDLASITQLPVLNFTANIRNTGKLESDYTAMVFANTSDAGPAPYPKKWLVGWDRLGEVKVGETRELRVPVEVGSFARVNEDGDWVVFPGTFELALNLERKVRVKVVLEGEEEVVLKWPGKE
Description: as §1, §2, §3

[12] = tested on: microtubule polymerization; conditions: in vitro and in vivo; cited from earlier work
[13] = tested on: L5178Y mouse lymphoma cells; conditions: in vitro and in vivo; cited from earlier work
HTLV-III/LAV = conditions: in vitro; cited from earlier work
[14] = target: T6, α-glucosidase (EC 3.2.1.20, type IV) (Saccharomyces cerevisiae, UniProt P53341); assay: Initial screening assay for enzyme inhibition, α-glucosidase; type: biochemical, brewer's yeast
T6 construct: purchased Sigma; host or cells: brewer's yeast
T6 sequence (P53341 whole entry): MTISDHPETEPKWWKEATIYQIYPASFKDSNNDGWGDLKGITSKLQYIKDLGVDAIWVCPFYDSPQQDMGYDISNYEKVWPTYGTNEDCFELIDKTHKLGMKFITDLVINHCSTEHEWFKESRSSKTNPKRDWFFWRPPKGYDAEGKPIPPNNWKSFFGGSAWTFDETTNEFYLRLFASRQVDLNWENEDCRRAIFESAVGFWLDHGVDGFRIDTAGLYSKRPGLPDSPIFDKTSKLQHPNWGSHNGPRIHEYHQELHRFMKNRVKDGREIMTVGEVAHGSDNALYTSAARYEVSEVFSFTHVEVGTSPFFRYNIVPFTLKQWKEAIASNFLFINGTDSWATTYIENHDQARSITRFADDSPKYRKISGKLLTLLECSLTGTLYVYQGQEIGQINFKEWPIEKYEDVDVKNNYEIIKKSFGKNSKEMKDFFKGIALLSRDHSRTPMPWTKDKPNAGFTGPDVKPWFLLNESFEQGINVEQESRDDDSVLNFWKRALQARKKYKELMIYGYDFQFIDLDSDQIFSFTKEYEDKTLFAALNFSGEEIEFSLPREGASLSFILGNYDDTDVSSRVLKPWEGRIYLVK
Description: as §1
Initial screening assays with the enantiomeric avarols indicated significant activity by these compounds against only two of the twelve enzymes studies. […] This can occur when the two species compete for the same site or nearby sites on the enzyme. The equilibria that describe competitive inhibition are shown below. [drawing 3]
as §4, §5

SMILES	mutagenicity (Ames-microsomal assay)	antimutagenic activity through inhibition of benzo[a]pyrene monooxygenase [1]	toxicity [2]	% Enzyme activity relative to control [3]	remaining activity at 20 µM [4]	remaining activity at 20 µM [5]	remaining activity at 20 µM [6]	% Enzyme activity relative to control [7]	remaining activity at 20 µM [8]	% Enzyme activity relative to control [9]	% Enzyme activity relative to control [10]	remaining activity at 20 µM [11]	inhibition of microtubule polymerization [12]	cytotoxicity against L5178Y mouse lymphoma cells [13]	inhibition of replication of HTLV-III/LAV (HTLV-III/LAV)	inhibition at 20 µM ([14]; 20 μM)	remaining activity at 20 µM ([14]; α-glucosidase, 20 μM inhibitor, 2% MeOH, read-out: % Enzyme activity relative to control)	remaining activity at 20 µM ([6]; α-L-fucosidase, 20 μM inhibitor, 2% MeOH)	remaining activity at 20 µM ([8]; α-galactosidase (green coffee beans), 20 μM inhibitor, 2% MeOH)	inhibition of amyloglucosidase (in words) ([9]; Table 3)
CC1=CCC[C@H]2[C@](C)(CC3=CC(=O)C=CC3=O)[C@@H](C)CC[C@]12C [avarone, Avarone]	neither direct nor indirect mutagens	antimutagenic activity through the inhibition of benzo[a]pyrene monooxygenase	low toxicity																	
CC1=CCC[C@H]2[C@](C)(CC/C(C)=C/C[n+]3cn(C)c4ncnc(N)c43)[C@@H](C)CC[C@]12C [C-4-10]				91%	108%	95%	100%	102%	96%	94%	109%	102%								
CC1=CCC[C@H]2[C@](C)(Cc3cc(O)ccc3O)[C@@H](C)CC[C@]12C [avarol]	neither direct nor indirect mutagens	antimutagenic activity through the inhibition of benzo[a]pyrene monooxygenase	low toxicity										inhibition of microtubule polymerization	highly selective cytotoxicity	inhibition of replication					
C=C1CCC[C@H]2[C@](C)(CC3=C(O)C(=O)C=C(OC)C3=O)[C@@H](C)CC[C@]12C [ilimaquinone, reference compound]				96%	98%	111%		101%		57%	108%	105%				20%	82%	109%	97%	strong inhibitor of amyloglucosidase
